According to patent US9610255B2, “Lycopene and resveratrol dietary supplement” (HSIEHS BIOTECH (SINGAPORE) PTE LTD, priority 2009, dated 2017):

How the values were obtained:
prostatic carcinoma = details: 47,000 participants over 6 years (Giovannucci, E., 1995); cited from earlier work
[1] = cited from earlier work
[2] = Di Mascio P., 1989; cited from earlier work
[3] = human, in vivo, po
[4] = Distribution in the body after oral intake

Row | share of adsorbed compound that goes to the prostate and other internal organs [3] | SMILES | lowering of incidence of prostatic carcinoma in the lycopene group (prostatic carcinoma) | solubility in water [1] | activity in quenching oxygen-singlet among all carotenoids including β-carotene [2] | main distribution in the body [4] | solubility in organic solvents such as ethanol and acetone [1]
1 | over 90% | CC(C)=CCC/C(C)=C/C=C/C(C)=C/C=C/C(C)=C/C=C/C=C(C)/C=C/C=C(C)/C=C/C=C(\C)CCC=C(C)C [lycopene] | over 30% | water-insoluble | highest activity |  | 
2 |  | Oc1ccc(/C=C/c2cc(O)cc(O)c2)cc1 [resveratrol] |  | slightly soluble |  | heart, circulation system, along respiratory tract and skin | soluble
